Measurements from ChEMBL document CHEMBL2346657, “Synthesis of novel 2-amino-4-(5'-substituted 2'-phenyl-1H-indol-3'-yl)-6-aryl-4H-pyran-3-carbonitrile derivatives as antimicrobial and antioxidant agents” (2013).
Calls of active or inactive are those of the source. How the calls were made is not given here.

Test system: Aspergillus niger
Experiment: Antimicrobial activity against Aspergillus niger MTCC 281 at 500 ug/ml after 72 hrs by cup plate method
Assay type: functional
Settings: MTCC 281, 72 h, read-out: IZ

**Q.** With Nc1nc(=S)[nH]c2c1C(c1c(-c3ccccc3)[nH]c3ccccc13)C=C(c1ccc(Cl)cc1)O2 (stereo not given) as the molecule, how does the zone of inhibition at 500 µg/mL read?
**A.** 3 mm

Test system: not listed separately
Experiment: Antioxidant activity assessed as metal chelating activity by measuring inhibition of ferrozine-Fe2+ complex formation at 25 to 100 ug/ml
Assay type: functional
Settings: not given

**Q.** With Nc1nc(=S)[nH]c2c1C(c1c(-c3ccccc3)[nH]c3ccccc13)C=C(c1ccc(Cl)cc1)O2 (stereo not given) as the molecule, how does the Activity read?
**A.** Active

Test system: Escherichia coli
Experiment: Antimicrobial activity against Escherichia coli MTCC 723 at 750 ug/ml after 24 hrs by cup plate method
Assay type: functional
Settings: MTCC 723, 24 h, read-out: IZ

**Q.** For Nc1nc(=S)[nH]c2c1C(c1c(-c3ccccc3)[nH]c3ccccc13)C=C(c1ccc(Cl)cc1)O2 (stereo not given), which zone of inhibition at 750 µg/mL is on record?
**A.** 10 mm

Test system: Aspergillus flavus
Experiment: Antimicrobial activity against Aspergillus flavus MTCC 1973 at 1000 ug/ml after 72 hrs by cup plate method
Assay type: functional
Settings: MTCC 1973, 72 h, read-out: IZ

**Q.** Which zone of inhibition at 1000 µg/mL does the source give for Nc1nc(=S)[nH]c2c1C(c1c(-c3ccccc3)[nH]c3ccccc13)C=C(c1ccc(Cl)cc1)O2 (stereo not given) here?
**A.** 5 mm

Test system: Aspergillus terreus
Experiment: Antimicrobial activity against Aspergillus terreus MTCC 1782 at 750 ug/ml after 72 hrs by cup plate method
Assay type: functional
Settings: MTCC 1782, 72 h, read-out: IZ

**Q.** Which zone of inhibition at 750 µg/mL does the source give for Nc1nc(=S)[nH]c2c1C(c1c(-c3ccccc3)[nH]c3ccccc13)C=C(c1ccc(Cl)cc1)O2 (stereo not given) here?
**A.** 5 mm

Test system: Klebsiella pneumoniae
Experiment: Antimicrobial activity against Klebsiella pneumoniae NCTC 13368 at 750 ug/ml after 24 hrs by cup plate method
Assay type: functional
Settings: NCTC 13368, 24 h, read-out: IZ

**Q.** With Nc1nc(=S)[nH]c2c1C(c1c(-c3ccccc3)[nH]c3ccccc13)C=C(c1ccc(Cl)cc1)O2 (stereo not given) as the molecule, how does the zone of inhibition at 750 µg/mL read?
**A.** 8 mm

Test system: Aspergillus niger
Experiment: Antimicrobial activity against Aspergillus niger MTCC 281 at 1000 ug/ml after 72 hrs by cup plate method
Assay type: functional
Settings: MTCC 281, 72 h, read-out: IZ

**Q.** Which zone of inhibition at 1000 µg/mL does the source give for Nc1nc(=S)[nH]c2c1C(c1c(-c3ccccc3)[nH]c3ccccc13)C=C(c1ccc(Cl)cc1)O2 (stereo not given) here?
**A.** 5 mm

Test system: Staphylococcus aureus
Experiment: Antimicrobial activity against Staphylococcus aureus ATCC 29513 at 750 ug/ml after 24 hrs by cup plate method
Assay type: functional
Settings: ATCC 29513, 24 h, read-out: IZ

**Q.** For Nc1nc(=S)[nH]c2c1C(c1c(-c3ccccc3)[nH]c3ccccc13)C=C(c1ccc(Cl)cc1)O2 (stereo not given), which zone of inhibition at 750 µg/mL is on record?
**A.** 10 mm

Test system: Aspergillus niger
Experiment: Antimicrobial activity against Aspergillus niger MTCC 281 at 750 ug/ml after 72 hrs by cup plate method
Assay type: functional
Settings: MTCC 281, 72 h, read-out: IZ

**Q.** With Nc1nc(=S)[nH]c2c1C(c1c(-c3ccccc3)[nH]c3ccccc13)C=C(c1ccc(Cl)cc1)O2 (stereo not given) as the molecule, how does the zone of inhibition at 750 µg/mL read?
**A.** 3 mm

Test system: Pseudomonas aeruginosa
Experiment: Antimicrobial activity against Pseudomonas aeruginosa MTCC 1688 at 750 ug/ml after 24 hrs by cup plate method
Assay type: functional
Settings: MTCC 1688, 24 h, read-out: IZ

**Q.** With Nc1nc(=S)[nH]c2c1C(c1c(-c3ccccc3)[nH]c3ccccc13)C=C(c1ccc(Cl)cc1)O2 (stereo not given) as the molecule, how does the zone of inhibition at 750 µg/mL read?
**A.** 10 mm

Test system: Aspergillus oryzae
Experiment: Antimicrobial activity against Aspergillus oryzae MTCC 3567 at 750 ug/ml after 72 hrs by cup plate method
Assay type: functional
Settings: MTCC 3567, 72 h, read-out: IZ

**Q.** With Nc1nc(=S)[nH]c2c1C(c1c(-c3ccccc3)[nH]c3ccccc13)C=C(c1ccc(Cl)cc1)O2 (stereo not given) as the molecule, how does the zone of inhibition at 750 µg/mL read?
**A.** 8 mm

Test system: Escherichia coli
Experiment: Antimicrobial activity against Escherichia coli MTCC 723 at 500 ug/ml after 24 hrs by cup plate method
Assay type: functional
Settings: MTCC 723, 24 h, read-out: IZ

**Q.** Which zone of inhibition at 500 µg/mL does the source give for Nc1nc(=S)[nH]c2c1C(c1c(-c3ccccc3)[nH]c3ccccc13)C=C(c1ccc(Cl)cc1)O2 (stereo not given) here?
**A.** 10 mm

Test system: Escherichia coli
Experiment: Antimicrobial activity against Escherichia coli MTCC 723 at 1000 ug/ml after 24 hrs by cup plate method
Assay type: functional
Settings: MTCC 723, 24 h, read-out: IZ

**Q.** For Nc1nc(=S)[nH]c2c1C(c1c(-c3ccccc3)[nH]c3ccccc13)C=C(c1ccc(Cl)cc1)O2 (stereo not given), which zone of inhibition at 1000 µg/mL is on record?
**A.** 10 mm

Test system: Staphylococcus aureus
Experiment: Antimicrobial activity against Staphylococcus aureus ATCC 29513 at 1000 ug/ml after 24 hrs by cup plate method
Assay type: functional
Settings: ATCC 29513, 24 h, read-out: IZ

**Q.** For Nc1nc(=S)[nH]c2c1C(c1c(-c3ccccc3)[nH]c3ccccc13)C=C(c1ccc(Cl)cc1)O2 (stereo not given), which zone of inhibition at 1000 µg/mL is on record?
**A.** 11 mm

Test system: Aspergillus terreus
Experiment: Antimicrobial activity against Aspergillus terreus MTCC 1782 at 1000 ug/ml after 72 hrs by cup plate method
Assay type: functional
Settings: MTCC 1782, 72 h, read-out: IZ

**Q.** With Nc1nc(=S)[nH]c2c1C(c1c(-c3ccccc3)[nH]c3ccccc13)C=C(c1ccc(Cl)cc1)O2 (stereo not given) as the molecule, how does the zone of inhibition at 1000 µg/mL read?
**A.** 5 mm

Test system: Klebsiella pneumoniae
Experiment: Antimicrobial activity against Klebsiella pneumoniae NCTC 13368 at 1000 ug/ml after 24 hrs by cup plate method
Assay type: functional
Settings: NCTC 13368, 24 h, read-out: IZ

**Q.** With Nc1nc(=S)[nH]c2c1C(c1c(-c3ccccc3)[nH]c3ccccc13)C=C(c1ccc(Cl)cc1)O2 (stereo not given) as the molecule, how does the zone of inhibition at 1000 µg/mL read?
**A.** 5 mm

Test system: Aspergillus flavus
Experiment: Antimicrobial activity against Aspergillus flavus MTCC 1973 at 750 ug/ml after 72 hrs by cup plate method
Assay type: functional
Settings: MTCC 1973, 72 h, read-out: IZ

**Q.** With Nc1nc(=S)[nH]c2c1C(c1c(-c3ccccc3)[nH]c3ccccc13)C=C(c1ccc(Cl)cc1)O2 (stereo not given) as the molecule, how does the zone of inhibition at 750 µg/mL read?
**A.** 12 mm

Test system: Aspergillus terreus
Experiment: Antimicrobial activity against Aspergillus terreus MTCC 1782 at 500 ug/ml after 72 hrs by cup plate method
Assay type: functional
Settings: MTCC 1782, 72 h, read-out: IZ

**Q.** Which zone of inhibition at 500 µg/mL does the source give for Nc1nc(=S)[nH]c2c1C(c1c(-c3ccccc3)[nH]c3ccccc13)C=C(c1ccc(Cl)cc1)O2 (stereo not given) here?
**A.** 8 mm

Test system: Aspergillus oryzae
Experiment: Antimicrobial activity against Aspergillus oryzae MTCC 3567 at 500 ug/ml after 72 hrs by cup plate method
Assay type: functional
Settings: MTCC 3567, 72 h, read-out: IZ

**Q.** For Nc1nc(=S)[nH]c2c1C(c1c(-c3ccccc3)[nH]c3ccccc13)C=C(c1ccc(Cl)cc1)O2 (stereo not given), which zone of inhibition at 500 µg/mL is on record?
**A.** 9 mm

Test system: Aspergillus flavus
Experiment: Antimicrobial activity against Aspergillus flavus MTCC 1973 at 500 ug/ml after 72 hrs by cup plate method
Assay type: functional
Settings: MTCC 1973, 72 h, read-out: IZ

**Q.** For Nc1nc(=S)[nH]c2c1C(c1c(-c3ccccc3)[nH]c3ccccc13)C=C(c1ccc(Cl)cc1)O2 (stereo not given), which zone of inhibition at 500 µg/mL is on record?
**A.** 12 mm

Test system: Pseudomonas aeruginosa
Experiment: Antimicrobial activity against Pseudomonas aeruginosa MTCC 1688 at 1000 ug/ml after 24 hrs by cup plate method
Assay type: functional
Settings: MTCC 1688, 24 h, read-out: IZ

**Q.** For Nc1nc(=S)[nH]c2c1C(c1c(-c3ccccc3)[nH]c3ccccc13)C=C(c1ccc(Cl)cc1)O2 (stereo not given), which zone of inhibition at 1000 µg/mL is on record?
**A.** 10 mm

Test system: Klebsiella pneumoniae
Experiment: Antimicrobial activity against Klebsiella pneumoniae NCTC 13368 at 500 ug/ml after 24 hrs by cup plate method
Assay type: functional
Settings: NCTC 13368, 24 h, read-out: IZ

**Q.** With Nc1nc(=S)[nH]c2c1C(c1c(-c3ccccc3)[nH]c3ccccc13)C=C(c1ccc(Cl)cc1)O2 (stereo not given) as the molecule, how does the zone of inhibition at 500 µg/mL read?
**A.** 8 mm

Test system: Pseudomonas aeruginosa
Experiment: Antimicrobial activity against Pseudomonas aeruginosa MTCC 1688 at 500 ug/ml after 24 hrs by cup plate method
Assay type: functional
Settings: MTCC 1688, 24 h, read-out: IZ

**Q.** For Nc1nc(=S)[nH]c2c1C(c1c(-c3ccccc3)[nH]c3ccccc13)C=C(c1ccc(Cl)cc1)O2 (stereo not given), which zone of inhibition at 500 µg/mL is on record?
**A.** 10 mm

Test system: Staphylococcus aureus
Experiment: Antimicrobial activity against Staphylococcus aureus ATCC 29513 at 500 ug/ml after 24 hrs by cup plate method
Assay type: functional
Settings: ATCC 29513, 24 h, read-out: IZ

**Q.** With Nc1nc(=S)[nH]c2c1C(c1c(-c3ccccc3)[nH]c3ccccc13)C=C(c1ccc(Cl)cc1)O2 (stereo not given) as the molecule, how does the zone of inhibition at 500 µg/mL read?
**A.** 10 mm

Test system: Aspergillus oryzae
Experiment: Antimicrobial activity against Aspergillus oryzae MTCC 3567 at 1000 ug/ml after 72 hrs by cup plate method
Assay type: functional
Settings: MTCC 3567, 72 h, read-out: IZ

**Q.** With Nc1nc(=S)[nH]c2c1C(c1c(-c3ccccc3)[nH]c3ccccc13)C=C(c1ccc(Cl)cc1)O2 (stereo not given) as the molecule, how does the zone of inhibition at 1000 µg/mL read?
**A.** 8 mm
